Counter-ions that a name gives are not always drawn.
Assays:
[1] = Aerosol particle size distribution by laser diffraction; type: physicochemical; conditions: solutions in WFI 60-140 mg/ml, fill 2-4 ml
Procedure: Droplet size distributions for aerosolized drug and placebo solutions were measured using the Sympatec HELOS laser diffraction spectrometer. In preparation for a run, the nebulizer was connected to the compressed air line, the flow turned on and the pressure regulator set to a driving pressure to generate a flow rate of 8 LPM through the nebulizer. The flow was then turned off by closing the flow shut-off valve. Next, the nebulizer was connected to a “T” piece with one port plugged, and the other port coupled to a mouthpiece. The nebulizer was then filled with drug solution, and mounted so that nebulizer mouthpiece was aligned parallel to the nozzle of the Rodos dry powder disperser apparatus already installed in the spectrometer. The laser diffraction system was setup to automatically trigger when it sensed the presence of the aerosol generated by the nebulizer. Measurements were initiated by opening the shut-off valve to pressurize the nebulizer and generate the aerosol. A total of 6 particle size distribution scans were taken for each nebulizer run, and then averaged to provide representative size distribution results.

CD rats = assay: 14-consecutive day nose-only inhalation toxicity and recovery; type: in vivo, rat
Procedure: The solution was used to generate aerosolized vancomycin for all vancomycin exposure groups.
Nose-only exposures were conducted in a “flow-past” cylindrical inhalation chamber placed inside a steel-framed Plexiglas secondary containment box. The chamber contained 48 animal ports, each compatible with a single nose-only exposure tube, aerosol concentration sampling device (e.g., filter), or oxygen monitor.
The total air flow through the exposure system was balanced to achieve individual animal port flows of ˜500 mL/min (port flow approximated based on total chamber flow). Measured flows included sample flow rate, nebulizer flow rate, dilution flow rate (chamber make-up air), and chamber exhaust flow.
Vancomycin solution was aerosolized with two Aerotech II nebulizers operated at 20 psi driving pressure. The target aerosol Vancomycin concentration for all exposure levels was ˜1.0 mg/L.
Aerosolized vancomycin was administered to 3 groups of male and female CD rats (available from Charles River Laboratories, Kingston, N.Y.) for durations of 30 min (Low), 90 min (Mid), and 180 min (High). A control group was exposed for 180 min to aerosols generated from a normal saline solution. Groups of rats from the Control and High level 14-day exposures were also studied following a 14-day recovery period. Endpoints included clinical observations, body weights, clinical pathology (hematology, clinical chemistry), urinalyses, organ weights, and histopathology.

beagle dogs = assay: 14-consecutive day face mask inhalation toxicity and recovery; type: in vivo, dog
Procedure: Within 2 hours prior to usage, a vancomycin nebulizer solution having a concentration of 120 mg/ml was formed by dissolving vancomycin hydrochloride (available from Alpharma, Copenhagen, Denmark) in sterile water for injection USP (available from B. Braun Medical Inc., Bethlehem, Pa.). The solution was used to generate aerosolized vancomycin for all vancomycin exposure groups.
The exposure system consisted of a single, cylindrical, plexiglass inhalation chamber (volume of ˜23.7 L, 14.61-cm radius, 35.56-cm height). The chamber was supplied with two Aerotech II nebulizers operated at ˜40 psi. Nebulized test article and nebulizer air supply was diluted with ˜10 L/min HEPA-filtered dilution air. The flow through the system was ˜36 L/min.
The aerosolized vancomycin was administered via a face mask to 3 groups of male and female beagle dogs for durations of 15 min (Low), 30 min (Mid), and 60 min (High). A control group was exposed for 60 min to aerosols generated from normal saline solution, i.e., 0.9% sodium chloride injection USP (available from B. Braun Medical Inc.).
Groups of dogs from the Control and High level 14-day exposures were also studied following a 14-day recovery period. Endpoints for all groups of dogs included physical examinations, clinical observations, body weights, ophthalmology, cardiovascular EKG, clinical pathology (hematology, clinical chemistry), urinalyses, organ weights, histopathology, and toxicokinetics.

For CN[C@H](CC(C)C)C(=O)N[C@H]1C(=O)N[C@@H](CC(N)=O)C(=O)N[C@H]2C(=O)N[C@H]3C(=O)N[C@H](C(=O)N[C@H](C(=O)O)c4cc(O)cc(O)c4-c4cc3ccc4O)[C@H](O)c3ccc(c(Cl)c3)Oc3cc2cc(c3O[C@@H]2O[C@H](CO)[C@@H](O)[C@H](O)[C@H]2O[C@H]2C[C@](C)(N)[C@H](O)[C@H](C)O2)Oc2ccc(cc2Cl)[C@H]1O [Vancomycin HCl, vancomycin hydrochloride], the “volume weighted median size of aerosol” value [1] was 2-3 μm, the “mass median aerodynamic diameter of exposure aerosol” value (CD rats; 120 mg/ml solution, Aerotech II nebulizers, 20 psi) was 2.0-2.6 μm and the “no observed effect level” value (CD rats; rat, 14-day inhalation) was “not established”. The “serum indicators of kidney function or urinalysis” value (CD rats; rat, 14-day inhalation) was “No vancomycin related changes”, the lung weight increase (CD rats; rat, High exposure level (180 min), 14 days) was ~19 % of control and the “histopathologic findings after recovery” value (CD rats; rat, High level, 14 days of recovery) was “substantial diminution of these findings”. For the same compound, the lung weight increase (CD rats; rat, Low exposure level (30 min), 14 days) was “approximately 8 % of control”, the “neutrophils (hematology)” value (CD rats; rat, Mid and High exposure levels) was “statistically significant increase” and the lung weight increase (CD rats; rat, Mid exposure level (90 min), 14 days) was ~20 % of control. The “exposure related histopathologic findings” value (CD rats; rat, end of 14-day exposure) was “limited to the respiratory tract”, the tolerability (CD rats; rat, inhalation 30, 90, 180 min/day, 14 days) was “well-tolerated by all groups of rats” and the body weight (CD rats; rat, inhalation 14 days) was “no vancomycin treatment related effects”. For the same compound, the clinical observations (CD rats; rat, inhalation 14 days) was “no vancomycin related effects”, the survival (CD rats; rat, inhalation 14 days, all groups) was “All rats survived to scheduled necropsy” and the “mass median aerodynamic diameter of exposure aerosol” value (beagle dogs; 120 mg/ml solution, Aerotech II nebulizers, ~40 psi) was 1.9-2.6 μm. The “physical examinations, clinical observations, ophthalmology, ECG, hematology, clinical chemistry, urinalyses, gross necropsy, organ weights” value (beagle dogs; dog, 14-day inhalation) was “no vancomycin related effects”, the survival (beagle dogs; dog, 14 days, all groups) was “All dogs survived to scheduled necropsy” and the “recovery of histopathological effects” value (beagle dogs; dog, High level, 14-day recovery) was “complete after 14 days”. For the same compound, the histopathology (beagle dogs; dog, end of 14-day exposure) was “limited to microscopic findings in the lung” and the tolerability (beagle dogs; dog, face mask 15, 30, 60 min/day, 14 days) was “well-tolerated by all groups of dogs”.

Source: patent publication US9351929B2, “Antibiotic formulations, unit doses, kits, and methods” (Bayer Intellectual Property GMBH, priority 2005, dated 2016)
